Assay results published in US11028079B2 (ConverGene LLC, priority 2015, dated 2021).

The compounds below were run against T1, BRD4 bromodomains (Homo sapiens, UniProt O60885) (assay: BROMOscan bromodomain competition binding assay (DiscoveRx)). Details: Kd from 11 compound concentrations ranging from 0 to 10 μM, read-out: BROMOscan Relative Activity.
T1 construct: fused on or other part: T7 phage capsid protein (phage-display fusion; the phage DNA is read out by qPCR)
How it was run: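 Compounds in 0.1% DMSO/0.9% MEG competed with a solid-phase acetylated peptide for T7 phage-fused BRD4 bromodomains, with the retained bromodomain measured by qPCR.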

| Compound | Kd |
| --- | --- |
| Cc1noc(C)c1-c1ccc2nc(-c3cnn(CC(C)(C)O)c3)nc(N(Cc3cccc(Cl)c3)C3CC3)c2c1 [Example 312, 1-(4-(4-((3-chlorobenzyl)(cyclopropyl)amino)-6-(3,5-dimethylisoxazol-4-yl)quinazolin-2-yl)-1H-pyrazol-1-yl)-2-methylpropan-2-ol] | < 500 nM |
| Cc1noc(C)c1-c1ccc2nc(N3CCC4(CCC(=O)N4)CC3)nc(N3CCOC[C@@H]3c3ccccc3)c2c1 [Example 314, (S)-8-(6-(3,5-dimethylisoxazol-4-yl)-4-(3-phenylmorpholino)quinazolin-2-yl)-1,8-diazaspiro[4.5]decan-2-one] | < 500 nM |
| Cc1noc(C)c1-c1ccc2nc(C(=O)N3CCc4cnn(C)c4C3)nc(N3CCOC[C@@H]3c3ccccc3)c2c1 [Example 317, (S)-(6-(3,5-dimethylisoxazol-4-yl)-4-(3-phenylmorpholino)quinazolin-2-yl)(1-methyl-1,4,5,7-tetrahydro-6H-pyrazolo[3,4-c]pyridin-6-yl)methanone] | 500 to 5000 nM |
| Cc1noc(C)c1-c1ccc2nc(N3CCc4cnn(C)c4C3)nc(N3CCOC[C@@H]3c3ccccc3)c2c1 [Example 318, (S)-4-(6-(3,5-dimethylisoxazol-4-yl)-2-(1-methyl-1,4,5,7-tetrahydro-6H-pyrazolo[3,4-c]pyridin-6-yl)quinazolin-4-yl)-3-phenylmorpholine] | < 500 nM |
| Cc1noc(C)c1-c1ccc2nc(-c3cnn(C4CCNCC4)c3)nc(N3CCOC[C@@H]3c3ccccc3)c2c1 [Example 319, (S)-4-(6-(3,5-dimethylisoxazol-4-yl)-2-(1-(piperidin-4-yl)-1H-pyrazol-4-yl)quinazolin-4-yl)-3-phenylmorpholine] | < 500 nM |
| Cc1noc(C)c1-c1ccc2nc(N3CCC4(CCN(C)C4=O)CC3)nc(N3CCOC[C@@H]3c3ccccc3)c2c1 [Example 320, (S)-8-(6-(3,5-dimethylisoxazol-4-yl)-4-(3-phenylmorpholino)quinazolin-2-yl)-2-methyl-2,8-diazaspiro[4.5]decan-1-one] | < 500 nM |
| Cc1noc(C)c1-c1ccc2nc(-c3ccc(CO)s3)nc(N3CCOC[C@@H]3c3ccccc3)c2c1 [Example 323, (S)-(5-(6-(3,5-dimethylisoxazol-4-yl)-4-(3-phenylmorpholino)quinazolin-2-yl)thiophen-2-yl)methanol] | 500 to 5000 nM |
| Cc1noc(C)c1-c1ccc2nc(-c3cnn(C4CNC4)c3)nc(N3CCOC[C@@H]3c3ccccc3)c2c1 [Example 326, (S)-4-(2-(1-(azetidin-3-yl)-1H-pyrazol-4-yl)-6-(3,5-dimethylisoxazol-4-yl)quinazolin-4-yl)-3-phenylmorpholine] | < 500 nM |
| CC(=O)N1CCC(n2cc(-c3nc(N4CCOC[C@@H]4c4ccccc4)c4cc(-c5c(C)noc5C)ccc4n3)cn2)CC1 [Example 327, (S)-1-(4-(4-(6-(3,5-dimethylisoxazol-4-yl)-4-(3-phenylmorpholino)quinazolin-2-yl)-1H-pyrazol-1-yl)piperidin-1-yl)ethan-1-one] | < 500 nM |
| Cc1noc(C)c1-c1ccc2nc(N3CCC4(CCNC4=O)CC3)nc(N3CCOC[C@@H]3c3ccccc3)c2c1 [Example 329, (S)-8-(6-(3,5-dimethylisoxazol-4-yl)-4-(3-phenylmorpholino)quinazolin-2-yl)-2,8-diazaspiro[4.5]decan-1-one] | < 500 nM |
| Cc1noc(C)c1-c1ccc2nc(N3CCC4(CCC(=O)N4C)CC3)nc(N3CCOC[C@@H]3c3ccccc3)c2c1 [Example 330, (S)-8-(6-(3,5-dimethylisoxazol-4-yl)-4-(3-phenylmorpholino)quinazolin-2-yl)-1-methyl-1,8-diazaspiro[4.5]decan-2-one] | < 500 nM |

Continued, values first:

| Kd | Compound |
| --- | --- |
| < 500 nM | Cc1noc(C)c1-c1ccc2nc(-c3cnn(CC(C)(C)O)c3)nc(N3CCN(S(C)(=O)=O)C[C@@H]3c3ccccc3)c2c1 [Example 310, (S)-1-(4-(6-(3,5-dimethylisoxazol-4-yl)-4-(4-(methylsulfonyl)-2-phenylpiperazin-1-yl)quinazolin-2-yl)-1H-pyrazol-1-yl)-2-methylpropan-2-ol] |
| < 500 nM | Cc1noc(C)c1-c1ccc2nc(N3CCc4ncn(C)c4C3)nc(N3CCOC[C@@H]3c3ccccc3)c2c1 [Example 311, (S)-4-(6-(3,5-dimethylisoxazol-4-yl)-2-(3-methyl-3,4,6,7-tetrahydro-5H-imidazo[4,5-c]pyridin-5-yl)quinazolin-4-yl)-3-phenylmorpholine] |
| < 500 nM | Cc1noc(C)c1-c1ccc2nc(N3CCC4(CC3)CC(O)C4)nc(N3CCOC[C@@H]3c3ccccc3)c2c1 [Example 313, (S)-7-(6-(3,5-dimethylisoxazol-4-yl)-4-(3-phenylmorpholino)quinazolin-2-yl)-7-azaspiro 13.51 nonan-2-ol] |
| < 500 nM | Cc1noc(C)c1-c1ccc2nc(C(=O)NC3CS(=O)(=O)C3)nc(N3CCOC[C@@H]3c3ccccc3)c2c1 [Example 315, (S)-6-(3,5-dimethylisoxazol-4-yl)-N-(1,1-dioxidothietan-3-yl)-4-(3-phenylmorpholino)quinazoline-2-carboxamide] |
| 500 to 5000 nM | Cc1noc(C)c1-c1ccc2nc(C(=O)N3CCC4(CC3)CC(O)C4)nc(N3CCOC[C@@H]3c3ccccc3)c2c1 [Example 316, (S)-(6-(3,5-dimethylisoxazol-4-yl)-4-(3-phenylmorpholino)quinazolin-2-yl)(2-hydroxy-7-azaspiro[3.5]nonan-7-yl)methanone] |
| < 500 nM | Cc1noc(C)c1-c1ccc2nc(-c3ccc(CO)nc3)nc(N3CCOC[C@@H]3c3ccccc3)c2c1 [Example 321, (S)-(5-(6-(3,5-dimethylisoxazol-4-yl)-4-(3-phenylmorpholino)quinazolin-2-yl)pyridin-2-yl)methanol] |
| < 500 nM | Cc1noc(C)c1-c1ccc2nc(-c3cnn(CC(C)(C)O)c3)nc(N3CCN(C(=O)NC4CC4)C[C@@H]3c3ccccc3)c2c1 [Example 322, (S)—N-cyclopropyl-4-(6-(3,5-dimethylisoxazol-4-yl)-2-(1-(2-hydroxy-2-methylpropyl)-1H-pyrazol-4-yl)quinazolin-4-yl)-3-phenylpiperazine-1-carboxamide] |
| < 500 nM | CC(=O)N1CC(n2cc(-c3nc(N4CCOC[C@@H]4c4ccccc4)c4cc(-c5c(C)noc5C)ccc4n3)cn2)C1 [Example 324, (S)-1-(3-(4-(6-(3,5-dimethylisoxazol-4-yl)-4-(3-phenylmorpholino)quinazolin-2-yl)-1H-pyrazol-1-yl)azetidin-1-yl)ethan-1-one] |
| 500 to 5000 nM | Cc1noc(C)c1-c1ccc2nc(-c3csc(CO)c3)nc(N3CCOC[C@@H]3c3ccccc3)c2c1 [Example 325, (S)-(4-(6-(3,5-dimethylisoxazol-4-yl)-4-(3-phenylmorpholino)quinazolin-2-yl)thiophen-2-yl)methanol] |
| < 500 nM | Cc1noc(C)c1-c1ccc2nc(N3CCc4c(ncn4C)C3)nc(N3CCOC[C@@H]3c3ccccc3)c2c1 [Example 328, (S)-4-(6-(3,5-dimethylisoxazol-4-yl)-2-(1-methyl-1,4,6,7-tetrahydro-5H-imidazo[4,5-c]pyridin-5-yl)quinazolin-4-yl)-3-phenylmorpholine] |
